# Experiments:
# Type in all cases: cell-based, mice
# [1] = system: type I interferon INF-α; test: Production of type I interferon INF-α in naïve CD4SP T cells by ELISA; details: for effect of increasing production of INF-α by cGAMP: 48 hours, FIG. 7B
# Experimental: 1×10^5 naïve CD4SP T cells were stimulated for 48 hours on a plate on which an anti-CD3 antibody (10 μg/mL) and an anti-CD28 antibody (10 μg/mL) were immobilized. The cell supernatant was collected and the production of the type I interferon INF-α was examined by ELISA using an anti-INF-α antibody. In innate immune cells, type I interferons are produced by the activation of TBK1 and its downstream IRF3 and IRF7. Therefore, T cells from TBK1 heteromice (Tbk1+/−) and TBK1-deficient mice (Tbk1−/−) were used (see, J Exp Med, Vol. 199, 1641-1650, 2004). The result was as illustrated in FIG. 6A.
# (§1) Next, involvement of IRF3 and IRF7 in the effect of inhibiting cellular proliferation and the effect of increasing production of INF-α through STING were examined. Specifically, T cells from IRF3-deficient mice or IRF3/IRF7 double deficient mice (see Immunity, Vol. 13, 539-548, 2000; Nature, Vol. 434, 772-777, 2005) were stimulated by anti-CD3/CD28 antibodies in the presence or absence of cGAMP. 48 hours later, the proliferation of the cells and the production of INF-α were examined as described above. The results were as illustrated in FIGS. 7A and 7B.
# [2] = system: cell cycle-related factors in naïve CD4SP T cells; test: Gene expression of cell cycle-related factors by quantitative PCR; details: anti-CD3/CD28 antibodies 24 hours, FIG. 3
# Experimental: As described in (1) above, naïve CD4SP T cells were stimulated with anti-CD3/CD28 antibodies for 24 hours in the presence or absence of cGAMP. Subsequently, the gene expression of cell cycle-related factors was examined by quantitative PCR according to a conventional method. The result was as illustrated in FIG. 3.
# [3] = system: naïve CD4SP T cells; test: Cell survival rate of naïve CD4SP T cells (apoptosis inducing effect); details: cGAMP 10 or 30 μg/mL, 15 hours, FIG. 2
# [4] = system: mTOR Complex 1 (mTORC1) signaling; test: Phosphorylated level of signal molecules by western blotting; details: anti-CD3/CD28 antibodies 24 hours, FIG. 4
# Experimental: As a signal molecule that is involved in the expression of cell proliferation-related genes, the activation level of mTOR Complex 1 (mTORC1) signaling was analyzed. Specifically, as described in (1) above, naïve CD4SP T cells were stimulated with anti-CD3/CD28 antibodies for 24 hours in the presence or absence of cGAMP. Subsequently, the phosphorylated level of indicated factors was evaluated with antibodies specific to the phosphorylated form by western blotting. As primary antibodies, the antibodies set forth in the following were used. The following primary antibodies were manufactured by Cell Signaling Technology, Inc. and the catalog numbers are indicated in the parentheses.
# Anti-phospho-IRF3 (#4947)
# Anti-phospho-STAT5 (#9351)
# Anti-phospho-Jak3 (#5031)
# Anti-phospho-STING (#13647)
# As a second antibody, Goat anti-Rabbit IgG (H+L) Secondary Antibody, HRP from Thermo Fisher Scientific Inc. was used. Phosphorylated proteins were detected according to a manufacturer manual. The result was as illustrated in FIG. 4.
# [5] = system: lipid synthesis genes that are induced by the activation of mTORC1; test: Expression levels of lipid synthesis genes by quantitative PCR; details: FIG. 5
# Experimental: Moreover, the expression levels of lipid synthesis genes that are induced by the activation of mTORC1 were analyzed by quantitative PCR. The result was as illustrated in FIG. 5.
# [6] = system: naïve CD4SP T cells; test: Cell proliferation of naïve CD4SP T cells under anti-CD3/anti-CD28 stimulation (OD 450 nm); details: for effect of inhibiting cellular proliferation by cGAMP: FIG. 7A
# Experimental: Wild type mice and STING-deficient mice were used. As acquired immune lymphocytes, T cells (in particular naïve CD4SP T cells) were used. Naïve CD4SP T cells were obtained as a CD4^+ CD25^− CD62L^+ fraction from murine spleen by sorting using FACSAria. As a STING ligand, cyclic [G(2′,5′)pA(3′,5′)p] (hereinafter, simply referred to as “cGAMP”) was used. cGAMP (manufactured by Invitrogen, Cat. No.: tlrl-nacga23-1) was used at a working concentration of 3 μg/mL, 10 μg/mL, or 30 μg/mL. The obtained T cells were stimulated with an anti-CD3 antibody (10 μg/mL) and an anti-CD28 antibody (10 μg/mL) in the presence or absence of cGAMP. […] The cells were treated for 48 hours and then the cell proliferation was measured by the optical density (OD 450 nm). The result was as illustrated in FIG. 1.
# Moreover, the involvement of TBK1 in the function to inhibit cell proliferation by cGAMP was examined using TBK1 heterozygous mice and TBK1 knockout mice. The result was as illustrated in FIG. 6B.
# as §1
compound,measurement,setting,value
"Nc1nc2c(ncn2[C@@H]2O[C@@H]3COP(=O)(O)O[C@H]4[C@@H](O)[C@H](n5cnc6c(N)ncnc65)O[C@@H]4COP(=O)(O)O[C@@H]2[C@@H]3O)c(=O)[nH]1 [cGAMP, cyclic [G(2′,5′)pA(3′,5′)p]]",effect of increasing production of INF-α by cGAMP,[1]; IRF3/IRF7 double deficient mice,almost completely disappeared
same,effect of increasing production of INF-α by cGAMP,[1]; IRF3 deficient mice,almost completely disappeared
same,increase in production of INF-α by cGAMP,"[1]; TBK1-deficient mice (Tbk1−/−) versus Tbk1+/−, FIG. 6A",decreased by TBK1 knockout
same,INF-α production in T cells,"[1]; anti-CD3/anti-CD28 stimulation 48 hours, ELISA of supernatant, FIG. 6A",prominent increase
same,expression of Cdk1,[2],inhibited
same,expression of Cdk4,[2],inhibited
same,expression of cyclin A2,[2],inhibited
same,expression of cyclin B1,[2],inhibited
same,expression of cyclin D3,[2],inhibited
same,expression of p21,[2],increased
same,apoptosis-inducing effect,[3]; etoposide 10 μM,any prominent apoptosis-inducing effect was not found
same,cell survival rate,[3],decreased to some extent in a concentration-dependent manner
same,level of phosphorylated 4E-BP1,[4],decreased
same,level of phosphorylated S6K,[4],decreased
same,expression levels of lipid synthesis-related genes,[5],decreased
same,effect of inhibiting cellular proliferation by cGAMP,"[6]; IRF3/IRF7 double deficient mice, 48 hours",largely decreased
same,effect of inhibiting cellular proliferation by cGAMP,"[6]; IRF3 deficient mouse, 48 hours",partially decreased
same,effect on the number of naïve CD4SP T cells,"[6]; STING-deficient mice (STING−/−), anti-CD3/anti-CD28 stimulation, 48 hours, FIG. 1",limited
same,effect of Tbk1 knockout on inhibition of cell proliferation by cGAMP,"[6]; TBK1 knockout versus TBK1 heterozygous mice, FIG. 6B",almost no effect
same,degree of effect on the number of cells compared with etoposide,"[6]; cGAMP versus 10 μM etoposide, 48 hours, FIG. 1",acted in a degree similar to etoposide
same,"number of naïve CD4SP T cells (cell proliferation, OD 450 nm)","[6]; wild type mice (STING+/+), cGAMP 3, 10 or 30 μg/mL, anti-CD3/anti-CD28 stimulation, 48 hours, FIG. 1",decreased in a concentration-dependent manner
COc1cc([C@@H]2c3cc4c(cc3[C@@H](O[C@@H]3O[C@@H]5CO[C@@H](C)O[C@H]5[C@H](O)[C@H]3O)[C@H]3COC(=O)[C@H]23)OCO4)cc(OC)c1O [etoposide],"number of cells (cell proliferation, OD 450 nm)","[6]; etoposide 10 μM, STING+/+ and STING−/−, 48 hours, FIG. 1",decreased independent of the STING genotype

# From patent US20180243387A1, “TECHNOLOGY FOR C[…] CELLS” (RIKEN, priority 2017, published 2018)
